{"source": "patent EP0840727B1", "about": "“3-HYDROXY-2(1H)-[…] AGENTS” (priority 1995, dated 1997)", "key": {"Solubility in water": {"experiment": "Solubility in water", "assay_type": "physicochemical", "conditions": "in words"}, "[1]": {"experiment": "Promoting excretion of 241Am(III) in mice by injected ligand", "assay_type": "in vivo", "conditions": "Am(III), ligand 30 mmol.kg-1 i.p at 3 to 5 min after actinide i.v., kill at 24 h", "description": "(§1) Animal studies were completed using methods detailed in Radiation Protection Dosimetry, in press, P. W. Durbin et al., \"In Vivo Chelation of Am(III), Pu(IV), Np(V) and U(VI) in Mice by TREN-(Me-3,2-HOPO)\"; Radiation Protection Dosimetry, 17, No. 1, 1989, p. 351, P. W. Durbin et al., \"Removal of ^238Pu(IV) from Mice by Polycatechoylate, -Hydroxamate or -Hydroxypyridinonate Ligands\"; Radiation Research, 99, 1984, p. 85, P. W. Durbin et al., \"Specific Sequestering Agents for the Actinides ...\"; Radiation Research, 99, 1984, p. 106, P. W. Durbin et al., \"Removal of Pu and Am from Beagles and Mice ...\"; Radiation Research, 81, 1980, p. 170, R. D. Lloyd et al., and P. W. Durbin et al., \"Specific Sequestering Agents for the Actinides ...\". The foregoing articles are hereby incorporated by reference.\nRadionuclides used in the animal studies came from a variety of sources. However, they can be purchased commercially. The ^238Pu(IV) citrate and ^241Am(III) citrate solutions were prepared for animal injection by 8- to 10-fold dilution with 0.14M NaCl (pH 4) of concentrated stock solutions (0.08M sodium citrate buffer) that had been held in frozen storage at Lawrence Berkeley Laboratory (hereinafter LBL) for several years. [The ^238Pu(IV) was originally obtained from D. R. Atherton at the University of Utah Radiobiology Laboratory, Salt Lake City. The ^241Am(III) solution had been obtained many years earlier from the LBL Actinide Chemistry group.]\n(§2) One of the comparative chelating agents TREN-Me-3,2-HOPO, was also tested for effectiveness in promoting excretion of ^241Am(III), ^237Np(V), and ^232U(VI) by injection into mice, as follows: Mice, in groups of five, each received an intravenous injection of (a) 1100 Bq of ^241AM(III) in 0.2 mL of citrate buffer, (b) 150 Bq of ^232UO2Cl2 plus 3.6 mg of ^235UO2Cl2 in 0.2 mL of saline, or (c) 200 Bq of ^237NpO2Cl (7.5 mg of ^237NpO2Cl) in 0.2 mL of saline. Three to five minutes later, […] of TREN-Me-3,2-HOPO was injected intraperitoneally in 0.5 mL of saline. The mice were killed 24 hours after the actinide injection, frozen, and dissected after partial thawing. The skeleton, soft tissues, and separated excreta were radioanalyzed by counting the ^241Am gamma rays, or the alpha particles emitted by ^237Np or ^232U (and its ingrowing daughters). Removal of those actinides from mice by injected TREN-Me-3,2-HOPO is summarized in Table 5, which also includes data for mice similarly treated with CaNa3-DTPA and for actinide-injected controls. […] The structure of Am(III)-TREN-Me-3,2-HOPO is considered to resemble that of the Gd(III) complexes (see example 20). Complexation of the fraction of Np(V) that is reduced in vivo to Np(IV) is considered to resemble that of Pu(IV). Complexation of U(VI) is considered to take place through binding to UO2^2+."}, "[2]": {"experiment": "Promoting excretion of 237Np(V) in mice by injected ligand", "assay_type": "in vivo", "conditions": "Np(V), ligand 30 mmol.kg-1 i.p at 3 to 5 min after actinide i.v., kill at 24 h", "description": "as §1\nThe ^237Np(V) was obtained from J. Bucher of the LBL Actinide Chemistry group as NpO2Cl in 0.1 M HCl. It was diluted to the desired radioactivity concentration in 0.14M NaCl and the pH was adjusted to about 4.5 with NaOH just before use.\nas §2"}, "[3]": {"experiment": "Promoting excretion of U(VI) in mice by injected ligand", "assay_type": "in vivo", "conditions": "U(VI), ligand 30 mmol.kg-1 i.p at 3 to 5 min after actinide i.v., kill at 24 h", "description": "as §1\nThe ^232U was obtained from the Isotope Products Laboratory, Burbank, CA, and ^234,235U was obtained as U metal from long-held LBL storage. The two U sources were combined and dissolved in 6N HNO3, dried, and redissolved in 0.1 N HCl. The daughter radioactivities were removed by elution from a Dowex-50X4 column (22 cm length, 0.7 cm diameter, 1.5 mL·min^-1 flow rate) with 3.2N HCl. The U fractions (previously identified by a trial run with ^234,235U alone) were combined, dried, and redissolved in 0.14M NaCl at pH 5.5.\nas §2"}, "[4]": {"conditions": "ligand 30 µmol kg^-1 ip at 1 h after iv ^238Pu(IV) citrate, kill at 24 h, reported previously, cited from earlier work"}, "[5]": {"conditions": "Fe(III) chelation; cited from earlier work"}}, "note": "Marks after values point to notes of the source that are not given here."}
{"smiles": "CCCNC(=O)c1ccn(C)c(=O)c1O", "note": "[3-hydroxy-1-methyl-4(1-propylcarbamoyl)-2(1H)-pyridinone]", "values": [{"measurement": "solubility in water", "setting": "Solubility in water", "value": "very soluble in water"}]}
{"smiles": "O=C([O-])CN(CCN(CC(=O)[O-])CC(=O)[O-])CCN(CC(=O)[O-])CC(=O)[O-].[Ca+2].[Na+].[Na+].[Na+]", "note": "[CaNa3-DTPA, reference compound]", "values": [{"measurement": "percent of injected actinide ± SD at 24 h, tissues: liver", "setting": "[1]", "value": "13 ± 1.5^d percent of injected actinide"}, {"measurement": "percent of injected actinide ± SD at 24 h, tissues: skeleton", "setting": "[1]", "value": "8.5 ± 0.9^d percent of injected actinide"}, {"measurement": "percent of injected actinide ± SD at 24 h, tissues: soft tissue", "setting": "[1]", "value": "1.9 ± 0.3^d percent of injected actinide"}, {"measurement": "percent of injected actinide ± SD at 24 h, whole body", "setting": "[1]", "value": "24 ± 1.3^d percent of injected actinide"}, {"measurement": "percent of injected actinide at 24 h, excreta: feces and GI contents", "setting": "[1]; pooled", "value": "8.0% of injected actinide"}, {"measurement": "percent of injected actinide at 24 h, excreta: urine 0-24 h", "setting": "[1]; pooled", "value": "68% of injected actinide"}, {"measurement": "percent of injected actinide at 24 h, tissues: kidneys", "setting": "[1]; pooled", "value": "0.4% of injected actinide"}, {"measurement": "percent of injected actinide ± SD at 24 h, tissues: liver", "setting": "[2]", "value": "14 ± 5.7% of injected actinide"}, {"measurement": "percent of injected actinide ± SD at 24 h, tissues: skeleton", "setting": "[2]", "value": "40 ± 4.4% of injected actinide"}, {"measurement": "percent of injected actinide ± SD at 24 h, tissues: soft tissue", "setting": "[2]", "value": "3.5 ± 0.9% of injected actinide"}, {"measurement": "percent of injected actinide ± SD at 24 h, whole body", "setting": "[2]", "value": "58 ± 8.0% of injected actinide"}, {"measurement": "percent of injected actinide at 24 h, excreta: feces and GI contents", "setting": "[2]; pooled", "value": "1.5% of injected actinide"}, {"measurement": "percent of injected actinide at 24 h, excreta: urine 0-24 h", "setting": "[2]; pooled", "value": "40% of injected actinide"}, {"measurement": "percent of injected actinide at 24 h, tissues: kidneys", "setting": "[2]; pooled", "value": "1.3% of injected actinide"}, {"measurement": "percent of injected actinide ± SD at 24 h, tissues: kidneys", "setting": "[3]", "value": "17 ± 2.8% of injected actinide"}, {"measurement": "percent of injected actinide ± SD at 24 h, tissues: skeleton", "setting": "[3]", "value": "19 ± 3.0% of injected actinide"}, {"measurement": "percent of injected actinide ± SD at 24 h, tissues: soft tissue", "setting": "[3]", "value": "2.2 ± 0.1% of injected actinide"}, {"measurement": "percent of injected actinide ± SD at 24 h, whole body", "setting": "[3]", "value": "38 ± 0.7% of injected actinide"}, {"measurement": "percent of injected actinide at 24 h, combined excreta", "setting": "[3]; feces, GI contents and urine combined", "value": "62^f percent of injected actinide"}, {"measurement": "percent of injected actinide ± SD at 24 h, tissues: liver", "setting": "[3]; livers of some groups pooled", "value": "1.0^c percent of injected actinide"}, {"measurement": "percent of injected ^238Pu at 24 h, excreta: feces and GI contents", "setting": "[4]; pooled samples", "value": "5.1% of injected ^238Pu"}, {"measurement": "percent of injected ^238Pu at 24 h, excreta: urine 0-24 h", "setting": "[4]; pooled samples", "value": "61% of injected ^238Pu"}, {"measurement": "percent of injected ^238Pu ± SD at 24 h, tissues: liver", "setting": "[4]", "value": "17 ± 4.0% of injected ^238Pu"}, {"measurement": "percent of injected ^238Pu ± SD at 24 h, tissues: skeleton", "setting": "[4]", "value": "12 ± 2.3% of injected ^238Pu"}, {"measurement": "percent of injected ^238Pu ± SD at 24 h, tissues: soft tissue", "setting": "[4]", "value": "3.5 ± 1.6% of injected ^238Pu"}, {"measurement": "percent of injected ^238Pu ± SD at 24 h, whole body", "setting": "[4]", "value": "33 ± 6.6% of injected ^238Pu"}]}
{"smiles": "O=C(N[C@H]1COC(=O)[C@@H](NC(=O)c2cccc(O)c2O)COC(=O)[C@@H](NC(=O)c2cccc(O)c2O)COC1=O)c1cccc(O)c1O", "note": "[enterobacun]", "values": [{"measurement": "formation constant Kf", "setting": "[5]", "value": "10^49"}, {"measurement": "pM", "setting": "[5]", "value": 35.5}]}
